Assay results published in patent US20070003483A1, “Method of evaluating organ function” (Oxygenix Co., Ltd., priority 2003, published 2007).

Legend:
Mrp2 [1] = test: Immunohistochemical analysis of subcellular Mrp2 distribution in 8-hr cold ischemia-reperfused grafts; design: species or system rat; conditions: 8-hr cold ischemia and 60-min reperfusion
Source text: To evaluate Mrp2 in hepatocytes of the grafts, the liver samples were fixed, sliced, and stained with a monoclonal antibody M2III-6, according to previous study (32). The antigen on the sections was visualized by phycoerythrin-conjugated anti-mouse IgG and observed through laser confocal microfluorography at 488 nm as described elsewhere (20, 30). In order to examine BC localization and hepatocellular internalization of Mrp2, the sections were double immunostained with a monoclonal antibody against ZO-1, another marker expressed in hepatocellular junction (33). To determine changes in the protein distribution in a semi-quantitative manner, single-stained microfluorographs of Mrp2 were converted as monochrome 8-bit images (14). The gray levels (1-256) were measured at both cytoplasmic and canalicular domains in a single hepatocytes. At least 5 different sites for each domain were chosen in a single cell to calculate the relative values of cytoplasmic intensities versus the corresponding canalicular intensities. Such a measurement was carried out in 40-60 hepatocytes in 4 different grafts to construct histograms of the percentage cytoplasmic intensities of Mrp2-associated immunoreactivities, being defined as % I-Mrp2(cyt/bc). The elevation of this index represented an increase in the Mtp2 internalization. […]

Mrp2 [2] = target: T1, Mrp2 (Rattus norvegicus, UniProt Q63120); test: In situ visualization of hepatocellular CF exclusion by intravital laser confocal microfluorography in perfused liver grafts; conditions: grafts perfused with 1.5 mM probenecid
T1 construct: Livers of these rats were perfused ex vivo with the oxygenated Krebs-Henseleit buffer; from tissue; host or cells: whole rat liver grafts (Wistar), perfused ex vivo
T1 sequence (Q63120 whole entry, the tested form may be a part): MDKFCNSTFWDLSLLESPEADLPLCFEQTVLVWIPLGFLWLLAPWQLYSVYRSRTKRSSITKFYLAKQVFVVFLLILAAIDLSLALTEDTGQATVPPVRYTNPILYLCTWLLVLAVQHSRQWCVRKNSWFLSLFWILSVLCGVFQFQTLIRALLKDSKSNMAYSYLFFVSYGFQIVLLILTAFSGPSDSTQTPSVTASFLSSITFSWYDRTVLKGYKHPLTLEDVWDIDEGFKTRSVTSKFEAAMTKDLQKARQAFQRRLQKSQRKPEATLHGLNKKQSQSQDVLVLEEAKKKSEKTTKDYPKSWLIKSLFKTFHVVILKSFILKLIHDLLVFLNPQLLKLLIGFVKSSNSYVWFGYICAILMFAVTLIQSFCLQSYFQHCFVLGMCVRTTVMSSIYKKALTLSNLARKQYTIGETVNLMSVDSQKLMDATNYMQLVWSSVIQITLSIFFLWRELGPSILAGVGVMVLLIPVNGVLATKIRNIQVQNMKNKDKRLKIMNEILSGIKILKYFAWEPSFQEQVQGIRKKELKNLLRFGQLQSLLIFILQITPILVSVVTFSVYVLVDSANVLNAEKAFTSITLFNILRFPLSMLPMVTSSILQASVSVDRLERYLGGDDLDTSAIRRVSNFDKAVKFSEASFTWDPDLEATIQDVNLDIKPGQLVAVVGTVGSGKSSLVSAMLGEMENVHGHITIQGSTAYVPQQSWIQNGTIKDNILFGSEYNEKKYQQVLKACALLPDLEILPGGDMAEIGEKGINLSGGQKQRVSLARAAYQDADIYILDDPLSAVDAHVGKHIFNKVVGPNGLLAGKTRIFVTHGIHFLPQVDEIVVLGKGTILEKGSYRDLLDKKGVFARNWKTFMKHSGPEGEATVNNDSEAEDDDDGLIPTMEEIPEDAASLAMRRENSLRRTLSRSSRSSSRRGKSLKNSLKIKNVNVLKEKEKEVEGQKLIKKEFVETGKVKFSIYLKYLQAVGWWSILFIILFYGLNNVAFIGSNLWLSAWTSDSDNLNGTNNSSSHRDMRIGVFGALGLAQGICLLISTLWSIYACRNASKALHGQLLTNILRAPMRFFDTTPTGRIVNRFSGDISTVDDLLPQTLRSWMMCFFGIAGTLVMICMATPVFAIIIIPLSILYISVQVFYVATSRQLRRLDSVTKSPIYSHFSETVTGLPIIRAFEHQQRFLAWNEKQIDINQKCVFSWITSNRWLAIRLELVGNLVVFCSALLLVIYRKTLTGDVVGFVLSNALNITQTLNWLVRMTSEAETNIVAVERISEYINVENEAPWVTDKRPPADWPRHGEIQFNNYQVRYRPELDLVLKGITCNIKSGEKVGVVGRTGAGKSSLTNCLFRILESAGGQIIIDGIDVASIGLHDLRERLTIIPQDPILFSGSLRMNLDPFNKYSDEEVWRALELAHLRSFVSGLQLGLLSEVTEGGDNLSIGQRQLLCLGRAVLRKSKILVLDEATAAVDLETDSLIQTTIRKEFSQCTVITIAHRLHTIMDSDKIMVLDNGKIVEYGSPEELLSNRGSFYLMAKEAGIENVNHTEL
Experimental: (§1) Male Wistar rats (220-260 g, CLEA Japan, Tokyo) and Eisai hyperbilirubinemia rats (EHBR) (220-260 g, Sankyo Inc., Tokyo) that had been allowed free access to laboratory chow and tap water were fasted 24 hrs before experiments. Livers of these rats were perfused ex vivo with the oxygenated Krebs-Henseleit buffer as the base-line perfusate (17, 18), and stored in the University of Wisconsin solution at 4° C. for desired lengths of time (14). When necessary, rats were pretreated with an intravenous injection of liposome-encapsulated dichloromethylene diphosphonate (LDD) at 24 hrs prior to preparation of the ex-vivo liver perfusion for the cold storage according to our previous studies (14, 19). […]
Liver grafts loaded with CF using the aforementioned protocols were observed through intravital laser confocal microfluorography as described previously (14, 20, 30). […] To calibrate the fluorescence intensities, known concentrations of CF were prepared in vitro and the images were captured under the identical optical parameters of the camera. Gray levels in hepatocytes were measured by variable square window (2×2 μm^2) using digital image processor (18, 31). At least 10 different hepatocytes in the microscopic fields of interests were analyzed in a single experiment.

Mrp2 [3] = target: T1, Mrp2; test: Biliary excretion rates of carboxyfluorescein (T1/2 of dye exclusion) in whole perfused liver grafts; conditions: normoperfused grafts in the presence of 1.5 mM probenecid
Experimental: as §1
Carboxyfluorescein (CF) is an organic anion which excreted from various cells through Mrp2 (26, 27). […] Bile samples collected from these preparations were deep-frozen until the fluorescence measurements were carried out using a 96-well multi-channel fluorescence spectrophotometer. The measurements were performed under epi-illumination at 440 nm, the isosbestic wavelength of the dye which yields fluorescence at 510 nm without interference with pH values of the samples (26). […] With this assumption, biliary CF lifetimes were determined as the T1/2 of the exponential decay.

Row | Compound | Mrp2 internalization (reduced BC localization, elevated cytoplasmic intensity) (Mrp2 [1]) | decay of hepatocellular CF fluorescence (Mrp2 transport) (Mrp2 [2]) | transient increase of CF concentrations in bile (Mrp2 [3])
1 | O=C(O)/C=C/c1ccc(Cn2ccnc2)cc1 [OKY-046] | attenuated |  | 
2 | CCCN(CCC)S(=O)(=O)c1ccc(C(=O)O)cc1 [probenecid] |  | substantially slowed | not observed
